Measurements as given in US10065990B2, “Cyclic peptide compound, and preparation method, pharmaceutical composition and use thereof” (HANGZHOU GUANYU BIO-MEDICAL CO., LTD, priority 2013, dated 2018).
Read-outs that look alike come from different tables or passages of the source.

How the values were obtained:
HDAC2 = HDAC2 (Homo sapiens, UniProt Q92769); assay: HDAC biochemical activity measurement (fluorescent substrate deacetylation);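 note: HDAC2 enzyme with an acetyl-lysine fluorescent substrate, then developer added, fluorescence read at excitation 360 nm and emission 460 nm, inhibition measured across several compound concentrations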; conditions: 37° C. 30 minutes
Chain of HDAC2 (Q92769 whole entry, species assumed): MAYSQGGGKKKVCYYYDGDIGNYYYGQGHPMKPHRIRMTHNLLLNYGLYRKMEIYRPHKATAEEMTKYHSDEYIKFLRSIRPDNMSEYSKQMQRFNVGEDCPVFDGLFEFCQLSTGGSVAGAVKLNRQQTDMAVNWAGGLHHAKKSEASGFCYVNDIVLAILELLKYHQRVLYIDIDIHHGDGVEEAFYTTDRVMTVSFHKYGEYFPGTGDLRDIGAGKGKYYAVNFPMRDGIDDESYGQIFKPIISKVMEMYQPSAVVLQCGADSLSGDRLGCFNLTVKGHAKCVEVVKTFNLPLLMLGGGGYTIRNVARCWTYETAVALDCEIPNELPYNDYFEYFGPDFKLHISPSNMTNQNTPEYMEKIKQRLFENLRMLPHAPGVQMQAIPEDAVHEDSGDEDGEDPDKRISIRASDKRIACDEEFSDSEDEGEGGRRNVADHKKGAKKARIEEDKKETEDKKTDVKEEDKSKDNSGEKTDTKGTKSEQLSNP
Protocol: The chemical activity of the compound is determined according to the degree of deacetylation inhibition of the HDAC enzyme. This experiment measured the degree of deacetylation related to tumor proliferation and metastasis of HDAC1, HDAC2, HDAC3, HDAC8, HDAC11 five subtypes HDAC enzymes. After the substrate containing an acetylated lysine side chain and HDAC enzyme are labeled with a fluorescent label, the fluorescent substrate is de acetyl. The fluorescent labeled substrate is cleaved by the enzyme, and the fluorescent substance is released, which generates 460 nm emission light under the excitation of 360 nm light.
HDAC substrate was diluted with reaction buffer to 200M (reaction concentration of 20M), the HDAC enzyme was diluted to the appropriate concentration, then added different concentrations of the test compounds and acted at 37° C. 30 minutes, and then added the same volume of 2-times concentration substrate developing solution (developer), incubated at room temperature for 15 minutes.

[1] = tested on: SGC-7901 (human gastric cancer cells); assay: MTT cancer cell growth inhibition; format: cell-based; conditions: Homo sapiens, SGC-7901, 72 h, MTT, 72 hours incubation, SGC-7901 cells; read-out: GI50 SGC-7901
In short: (§1)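 MTT viability, 570 nm, GI50. Cells 1500/well; compound 72 h at final 10^−5–10^−10 M in triplicate.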

[2] = tested on: Hela (human cervical cancer cells); assay: MTT cancer cell growth inhibition; format: cell-based; conditions: Homo sapiens, HeLa, 72 h, MTT
In short: as §1

[3] = tested on: HT1080 (human fibrosarcoma cells); assay: MTT cancer cell growth inhibition; format: cell-based; conditions: Homo sapiens, HT-1080, 72 h, MTT
In short: as §1

[4] = tested on: H1975 (non-small cell lung adenocarcinoma); assay: MTT cancer cell growth inhibition; format: cell-based; conditions: Homo sapiens, NCI-H1975, 72 h, MTT, 72 hours incubation, H1975 cells; read-out: GI50 H1975
In short: as §1

[5] = tested on: KBM5-T315I (human chronic myelogenous leukemia); assay: MTT cancer cell growth inhibition; format: cell-based; conditions: Homo sapiens, 72 h, MTT, 72 hours incubation, KBM5-T315I cells; read-out: GI50 KBM5-T315I
In short: as §1

[6] = tested on: KBM-5 (human chronic myelogenous leukemia); assay: MTT cancer cell growth inhibition; format: cell-based; conditions: Homo sapiens, KBM5, 72 h, MTT, 72 hours incubation, KBM-5 cells; read-out: GI50 KBM-5
In short: as §1

[7] = tested on: A549 (human lung cancer cells); assay: MTT cancer cell growth inhibition; format: cell-based; conditions: Homo sapiens, A549, 72 h, MTT
In short: as §1

[8] = tested on: lncap (prostate cancer cells); assay: MTT cancer cell growth inhibition; format: cell-based; conditions: Homo sapiens, LNCaP, 72 h, MTT
In short: as §1

[9] = tested on: N-87 (human gastric cancer cells); assay: MTT cancer cell growth inhibition; format: cell-based; conditions: Homo sapiens, 72 h, MTT, 72 hours incubation, N-87 cells; read-out: GI50 N-87
In short: as §1

[10] = tested on: MOLT-4 (human acute lymphoblastic leukemia cells); assay: MTT cancer cell growth inhibition; format: cell-based; conditions: Homo sapiens, MOLT-4, 72 h, MTT
In short: as §1

[11] = tested on: K562 (human leukemia cells); assay: MTT cancer cell growth inhibition; format: cell-based; conditions: Homo sapiens, K562, 72 h, MTT, 72 hours incubation, K562 cells; read-out: GI50 K562
In short: as §1

[12] = tested on: HCC827 (human non-small cell lung cancer cells); assay: MTT cancer cell growth inhibition; format: cell-based; conditions: Homo sapiens, HCC827, 72 h, MTT, 72 hours incubation, HCC827 cells; read-out: GI50 HCC827
In short: as §1

[13] = tested on: Huh-7 (human hepatoma cells); assay: MTT cancer cell growth inhibition; format: cell-based; conditions: Homo sapiens, Huh-7, 72 h, MTT, 72 hours incubation, Huh-7 cells; read-out: GI50 Huh-7
In short: as §1

[14] = tested on: BGC-823 (human gastric cancer cells); assay: MTT cancer cell growth inhibition; format: cell-based; conditions: Homo sapiens, BGC-823, 72 h, MTT
In short: as §1

[15] = tested on: DU145 (human prostate cancer cells); assay: MTT cancer cell growth inhibition; format: cell-based; conditions: Homo sapiens, DU-145, 72 h, MTT
In short: as §1

[16] = tested on: MDA-MB-231 (breast cancer cells); assay: MTT cancer cell growth inhibition; format: cell-based; conditions: Homo sapiens, MDA-MB-231, 72 h, read-out: GI50 MDA-MB-231, MTT, 72 hours incubation, MDA-MB-231 cells
In short: as §1

[17] = tested on: U937 (human leukemia cells); assay: MTT cancer cell growth inhibition; format: cell-based; conditions: Homo sapiens, U-937, 72 h, MTT
In short: as §1

[18] = tested on: Bel-7402 (human hepatoma cells); assay: MTT cancer cell growth inhibition; format: cell-based; conditions: Homo sapiens, Bel-7402, 72 h, MTT, 72 hours incubation, Bel-7402 cells; read-out: GI50 Bel-7402
In short: as §1

[19] = tested on: MCF-7 (human breast cancer cells); assay: MTT cancer cell growth inhibition; format: cell-based; conditions: Homo sapiens, MCF7, 72 h
In short: as §1

[20] = tested on: PANC-1 (Pac-1, human pancreatic cancer cells); assay: MTT cancer cell growth inhibition; format: cell-based; conditions: Homo sapiens, PANC-1, 72 h, MTT
In short: as §1

[21] = Hela cells, 72 hours incubation, read-out: GI50 Hela
[22] = 72 hours, present invention, read-out: GI50 Hela, a
[23] = HT1080 cells, 72 hours incubation, read-out: GI50 HT1
[24] = 72 hours, present invention, read-out: GI50 HT1080, a
[25] = A549 cells, 72 hours incubation, read-out: GI50 A54
[26] = 72 hours, present invention, read-out: GI50 A549, a
[27] = 72 hours, present invention, read-out: GI50 lncap, a
[28] = lncap cells, 72 hours incubation, read-out: GI50 lnca
[29] = MOLT-4 cells, 72 hours incubation, read-out: GI50 Mol
[30] = 72 hours, present invention, read-out: GI50 Molt-4, a
[31] = BGC-823 cells, 72 hours incubation, read-out: GI50 BG
[32] = 72 hours, present invention, read-out: GI50 BGC823, a
[33] = DU145 cells, 72 hours incubation, read-out: GI50 Du1
[34] = 72 hours, present invention, read-out: GI50 Du145, a
[35] = 72 hours, present invention, read-out: GI50 U937, a
[36] = U937 cells, 72 hours incubation, read-out: GI50 U93
[37] = 72 hours, present invention, read-out: GI50 MCF7, a
[38] = MCF-7 cells, 72 hours incubation, read-out: GI50 MCF
[39] = 72 hours, present invention, read-out: GI50 PANC-1, a
[40] = PANC-1 cells, 72 hours incubation, read-out: GI50 PAN
[41] = 72 hours incubation, read-out: GI50 Hela
[42] = 72 hours incubation, read-out: GI50 HT1
[43] = 72 hours incubation, read-out: GI50 A54
[44] = 72 hours incubation, read-out: GI50 lnca
[45] = 72 hours incubation, read-out: GI50 Mol
[46] = 72 hours incubation, read-out: GI50 BG
[47] = 72 hours incubation, read-out: GI50 Du1
[48] = 72 hours incubation, read-out: GI50 U93
[49] = 72 hours incubation, read-out: GI50 MCF
[50] = 72 hours incubation, read-out: GI50 PAN

C/C=C1\NC(=O)c2cccc(n2)CNC(=O)C[C@@H](/C=C/CCSC(=O)CCCCCCC)OC(=O)[C@H](CSCC)NC1=O [Compound 242]
IC50 (HDAC2): 0.043 µM | GI50 [1]: 0.032 µM | GI50 [2, 21]: 0.08 µM | GI50 [2, 22]: 0.088 µM | GI50 [3, 23]: 0.03 µM | GI50 [3, 24]: 0.33 µM | GI50 [4]: 0.021 µM | GI50 [5]: 0.033 µM | GI50 [6]: 0.056 µM | GI50 [7, 25]: 0.19 µM | GI50 [7, 26]: 0.19 µM | GI50 [8, 27]: 0.17 µM | GI50 [8, 28]: 0.17 µM | GI50 [9]: 0.031 µM | GI50 [10, 29]: 0.03 µM | GI50 [10, 30]: 0.032 µM | GI50 [11]: 0.055 µM | GI50 [12]: 0.079 µM | GI50 [13]: 0.059 µM | GI50 [14, 31]: 0.01 µM | GI50 [14, 32]: 0.014 µM | GI50 [15, 33]: 0.09 µM | GI50 [15, 34]: 0.091 µM | GI50 [16]: 0.016 µM | GI50 [17, 35]: 0.012 µM | GI50 [17, 36]: 0.01 µM | GI50 [18]: 0.088 µM | GI50 [19, 37]: 0.073 µM | GI50 [19, 38]: 0.07 µM | GI50 [20, 39]: 0.95 µM | GI50 [20, 40]: 0.95 µM

C/C=C1\NC(=O)c2cccc(n2)CNC(=O)C[C@@H](/C=C/CCS)OC(=O)[C@@H](C)NC1=O [Compound 145]
IC50 (HDAC2): 0.029 µM | GI50 [1]: 0.018 µM | GI50 [2, 41]: 0.04 µM | GI50 [3, 42]: 0.1 µM | GI50 [4]: 0.031 µM | GI50 [5]: 0.031 µM | GI50 [6]: 0.008 µM | GI50 [7, 43]: 0.07 µM | GI50 [8, 44]: 0.04 µM | GI50 [9]: 0.031 µM | GI50 [10, 45]: 0.1 µM | GI50 [11]: 0.032 µM | GI50 [12]: 0.078 µM | GI50 [13]: 0.058 µM | GI50 [14, 46]: 0.06 µM | GI50 [15, 47]: 0.06 µM | GI50 [16]: 0.041 µM | GI50 [17, 48]: 0.07 µM | GI50 [18]: 0.018 µM | GI50 [19, 49]: 0.06 µM | GI50 [20, 50]: 0.06 µM

C/C=C1\NC(=O)c2nc(ccc2F)CNC(=O)C[C@@H](/C=C/CCSC(=O)CCCCCC)OC(=O)[C@H](C(C)C)NC1=O [Compound 33]
IC50 (HDAC2): 0.043 µM | GI50 [1]: 0.052 µM | GI50 [2, 41]: 0.08 µM | GI50 [3, 42]: 0.08 µM | GI50 [4]: 0.026 µM | GI50 [5]: 0.051 µM | GI50 [6]: 0.083 µM | GI50 [7, 43]: 0.05 µM | GI50 [8, 44]: 0.03 µM | GI50 [9]: 0.061 µM | GI50 [10, 45]: 0.03 µM | GI50 [11]: 0.016 µM | GI50 [12]: 0.083 µM | GI50 [13]: 0.031 µM | GI50 [14, 46]: 0.06 µM | GI50 [15, 47]: 0.01 µM | GI50 [16]: 0.031 µM | GI50 [17, 48]: 0.02 µM | GI50 [18]: 0.083 µM | GI50 [19, 49]: 0.05 µM | GI50 [20, 50]: 0.08 µM

C/C=C1\NC(=O)c2nc(ccc2C)CNC(=O)C[C@@H](/C=C/CCSC(=O)CCCCCCC)OC(=O)[C@H](C(C)C)NC1=O [Compound 243]
IC50 (HDAC2): 0.056 µM | GI50 [1]: 0.025 µM | GI50 [2, 21]: 0.23 µM | GI50 [2, 22]: 0.23 µM | GI50 [3, 23]: 0.84 µM | GI50 [3, 24]: 0.84 µM | GI50 [4]: 0.043 µM | GI50 [5]: 0.045 µM | GI50 [6]: 0.093 µM | GI50 [7, 25]: 0.94 µM | GI50 [7, 26]: 0.94 µM | GI50 [8, 27]: 0.47 µM | GI50 [8, 28]: 0.47 µM | GI50 [9]: 0.023 µM | GI50 [10, 29]: 0.49 µM | GI50 [10, 30]: 0.49 µM | GI50 [11]: 0.032 µM | GI50 [12]: 0.037 µM | GI50 [13]: 0.053 µM | GI50 [14, 31]: 0.86 µM | GI50 [14, 32]: 0.86 µM | GI50 [15, 33]: 0.13 µM | GI50 [15, 34]: 0.13 µM | GI50 [16]: 0.093 µM | GI50 [17, 35]: 0.87 µM | GI50 [17, 36]: 0.87 µM | GI50 [18]: 0.035 µM | GI50 [19, 37]: 0.12 µM | GI50 [19, 38]: 0.12 µM | GI50 [20, 39]: 0.52 µM | GI50 [20, 40]: 0.52 µM
